According to patent US7138361B2, “Herbicidal heterocycles” (E. I. du Pont de Nemours and Company, priority 2000, dated 2006):

Legend:
Format in all cases: in vivo
Sunflower [1] = experiment: Test C preemergence; conditions: Rate 500 g/ha, visual evaluation after 12 to 14 days
[2] = tested on: crabgrass (Digitaria sanguinalis); experiment: Test B postemergence
Method in brief: (§1)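 Seeds were planted and sprayed preemergence with test chemical in a non-phytotoxic solvent mixture containing surfactant; postemergence plants (2 to 18 cm, 1- to 4-leaf stage) received the same formulation. Greenhouse hold 13 to 15 days, then visual rating versus untreated controls on a 0–100 scale (0 no effect, 100 complete control).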

[3] = tested on: lambsquarters (Chenopodium album); experiment: Test B postemergence
Method in brief: as §1

[4] = tested on: cocklebur (Xanthium strumarium); experiment: Test B postemergence
Method in brief: as §1

wild oat (Avena fatua) = experiment: Test B postemergence
Method in brief: as §1

[5] = tested on: velvetleaf (Abutilon theophrasti); experiment: Test C preemergence; conditions: for Plant response rating (0 to 100), Velvetleaf: Rate 500 g/ha, visual evaluation after 12 to 14 days
Method in brief: (§2)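 Visual injury scores of 0–100, with 100 meaning complete control, were given relative to controls after 12–14 days in the greenhouse. Treatments used a surfactant-containing non-phytotoxic solvent formulation, sprayed on seeded pots preemergence or on 1–4-leaf plants of 2–18 cm postemergence.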

kochia (Kochia scoparia) = experiment: Test C preemergence; conditions: for Plant response rating (0 to 100), Kochia: visual evaluation after 12 to 14 days
Method in brief: as §2

[6] = tested on: pigweed (Amaranthus retroflexus); experiment: Test C preemergence; conditions: for Plant response rating (0 to 100), Pigweed: Rate 500 g/ha, visual evaluation after 12 to 14 days
Method in brief: as §2

[7] = tested on: lambsquarters (Chenopodium album); experiment: Test C preemergence; conditions: for Plant response rating (0 to 100), Lambsquarters: Rate 500 g/ha, visual evaluation after 12 to 14 days
Method in brief: as §2

[8] = tested on: giant foxtail (Setaria faberii); experiment: Test C preemergence; conditions: for Plant response rating (0 to 100), Foxtail, Giant: visual evaluation after 12 to 14 days
Method in brief: as §2

Nightshade = experiment: Test C preemergence
soybean (Glycine max) = experiment: Test C preemergence; conditions: for Plant response rating (0 to 100), Soybean: Rate 500 g/ha, visual evaluation after 12 to 14 days
Method in brief: as §2

corn (Zea mays) = experiment: Test C preemergence; conditions: for Plant response rating (0 to 100), Corn: visual evaluation after 12 to 14 days
Method in brief: as §2

[9] = tested on: woolly cupgrass (Eriochloa villosa); experiment: Test C preemergence; conditions: for Plant response rating (0 to 100), Cupgrass, Woolly: visual evaluation after 12 to 14 days
Method in brief: as §2

[10] = tested on: johnsongrass (Sorghum halepense); experiment: Test C preemergence; conditions: for Plant response rating (0 to 100), Johnsongrass: visual evaluation after 12 to 14 days
Method in brief: as §2

[11] = tested on: cocklebur (Xanthium strumarium); experiment: Test C preemergence; conditions: for Plant response rating (0 to 100), Cocklebur: visual evaluation after 12 to 14 days
Method in brief: as §2

Sunflower [12] = experiment: Test C preemergence; conditions: Rate 125 g/ha; scale 0 to 100, 0 no effect, 100 complete control
[13] = tested on: Surinam grass (Brachiaria decumbens); experiment: Test C preemergence; conditions: for Plant response rating (0 to 100), Surinam grass: visual evaluation after 12 to 14 days
Method in brief: as §2

[14] = tested on: common ragweed (Ambrosia elatior); experiment: Test C preemergence; conditions: for Plant response rating (0 to 100), Ragweed, Common: Rate 500 g/ha, visual evaluation after 12 to 14 days
Method in brief: as §2

[15] = tested on: bermudagrass (Cynodon dactylon); experiment: Test C preemergence; conditions: for Plant response rating (0 to 100 where 0 is no effect and 100 is complete control), Bermudagrass: visual evaluation after 12 to 14 days
Method in brief: as §2

[16] = Rate 125 g/ha, scale 0 to 100, 0 no effect, 100 complete control
[17] = Rate 500 g/ha, scale 0 to 100, 0 is no effect, 100 is complete control, 13 to 15 days
[18] = preemergence, Rate 62 g/ha, scale 0 to 100
[19] = preemergence, Rate 250 g/ha, scale 0 to 100, 0 no effect, 100 complete control
[20] = Rate 250 g/ha, scale 0 to 100, 0 no effect, 100 complete control
[21] = Rate 125 g/ha, scale 0 (no effect) to 100 (complete control), 13 to 15 days
[22] = Rate 62 g/ha, scale 0 to 100, 0 no effect, 100 complete control

## COc1cc(N2CCC(n3ccc(C(C)C)n3)C2=O)ccc1Cl (stereo not drawn) [Compound 120]
Sunflower [1]
  Plant response rating (0 to 100), Sunflower: 100
[2]; [16]
  Plant response rating, Crabgrass: 30
[3]; [16]
  Plant response rating, Lambsquarters: 60
[4]; [16]
  Plant response rating, Cocklebur: 90
[4]; [17]
  Plant response rating, Cocklebur: 100
Wild oat (Avena fatua); [16]
  Plant response rating, Wild Oat: 30
[5]; [16]
  Plant response rating, Velvetleaf: 100
[5]; [18]
  Plant response rating, Velvetleaf: 80
[5]; preemergence
  Plant response rating (0 to 100), Velvetleaf: 100
[5]; [19]
  Plant response rating, Velvetleaf: 100
Kochia (Kochia scoparia); [16]
  Plant response rating, Kochia: 100
Kochia (Kochia scoparia); [18]
  Plant response rating, Kochia: 100
Kochia (Kochia scoparia); preemergence, Rate 500 g/ha
  Plant response rating (0 to 100), Kochia: 100
Kochia (Kochia scoparia); [19]
  Plant response rating, Kochia: 100
[6]; [16]
  Plant response rating, Pigweed: 100
[6]; [18]
  Plant response rating, Pigweed: 100
[6]; preemergence
  Plant response rating (0 to 100), Pigweed: 70
[6]; [19]
  Plant response rating, Pigweed: 50
[7]; [16]
  Plant response rating, Lambsquarters: 100
[7]; [18]
  Plant response rating, Lambsquarters: 100
[7]; preemergence
  Plant response rating (0 to 100), Lambsquarters: 100
[7]; [19]
  Plant response rating, Lambsquarters: 100
[8]; [16]
  Plant response rating, Foxtail, Giant: 50
[8]; [18]
  Plant response rating, Foxtail, Giant: 50
[8]; preemergence, Rate 500 g/ha
  Plant response rating (0 to 100), Foxtail, Giant: 100
[8]; [19]
  Plant response rating, Foxtail, Giant: 60
Nightshade; Rate 62 g/ha, scale 0 to 100
  Plant response rating, Nightshade: 100
Nightshade; [16]
  Plant response rating, Nightshade: 100
Nightshade; [20]
  Plant response rating, Nightshade: 100
Soybean (Glycine max); [16]
  Plant response rating, Soybean: 70
Soybean (Glycine max); [18]
  Plant response rating, Soybean: 60
Soybean (Glycine max); preemergence
  Plant response rating (0 to 100), Soybean: 100
Soybean (Glycine max); [19]
  Plant response rating, Soybean: 80
Corn (Zea mays); [16]
  Plant response rating, Corn: 0
Corn (Zea mays); [18]
  Plant response rating, Corn: 0
Corn (Zea mays); preemergence, Rate 500 g/ha
  Plant response rating (0 to 100), Corn: 60
Corn (Zea mays); [19]
  Plant response rating, Corn: 20
[9]; [16]
  Plant response rating, Cupgrass, Woolly: 100
[9]; [18]
  Plant response rating, Cupgrass, Woolly: 100
[9]; preemergence, Rate 500 g/ha
  Plant response rating (0 to 100), Cupgrass, Woolly: 100
[9]; [19]
  Plant response rating, Cupgrass, Woolly: 100
[10]; [16]
  Plant response rating, Johnsongrass: 80
[10]; [18]
  Plant response rating, Johnsongrass: 20
[10]; preemergence, Rate 500 g/ha
  Plant response rating (0 to 100), Johnsongrass: 100
[10]; [19]
  Plant response rating, Johnsongrass: 100
[11]; [16]
  Plant response rating, Cocklebur: 0
[11]; [18]
  Plant response rating, Cocklebur: 0
[11]; preemergence, Rate 500 g/ha
  Plant response rating (0 to 100), Cocklebur: 30
[11]; [19]
  Plant response rating, Cocklebur: 30
Sunflower [12]
  Plant response rating, Sunflower: 90
[13]; [16]
  Plant response rating, Surinam grass: 100
[13]; [18]
  Plant response rating, Surinam grass: 90
[13]; preemergence, Rate 500 g/ha
  Plant response rating (0 to 100), Surinam grass: 100
[13]; [19]
  Plant response rating, Surinam grass: 100
[14]; [16]
  Plant response rating, Ragweed, Common: 100
[14]; [18]
  Plant response rating, Ragweed, Common: 100
[14]; preemergence
  Plant response rating (0 to 100), Ragweed, Common: 100
[14]; [19]
  Plant response rating, Ragweed, Common: 100
[15]; [16]
  Plant response rating, Bermudagrass: 100
[15]; [18]
  Plant response rating, Bermudagrass: 100
[15]; preemergence, Rate 500 g/ha
  Plant response rating (0 to 100 where 0 is no effect and 100 is complete control), Bermudagrass: 100
[15]; [19]
  Plant response rating, Bermudagrass: 100

## CCC(C)c1ccn(C2CCN(c3ccc(C)c(OC)c3)C2=O)n1 (stereo not drawn) [Compound 80]
Sunflower [1]
  Plant response rating (0 to 100), Sunflower: 60
[2]; [21]
  Plant response rating, Crabgrass: 0
[2]; [17]
  Plant response rating, Crabgrass: 40
[3]; [21]
  Plant response rating, Lambsquarters: 10
[3]; [17]
  Plant response rating, Lambsquarters: 90
[4]; [21]
  Plant response rating, Cocklebur: 70
[4]; [17]
  Plant response rating, Cocklebur: 80
Wild oat (Avena fatua); [21]
  Plant response rating, Wild Oat: 0
Wild oat (Avena fatua); [17]
  Plant response rating, Wild Oat: 0
[5]; [16]
  Plant response rating, Velvetleaf: 40
[5]; preemergence
  Plant response rating (0 to 100), Velvetleaf: 100
[5]; [19]
  Plant response rating, Velvetleaf: 70
Kochia (Kochia scoparia); [22]
  Plant response rating, Kochia: 100
Kochia (Kochia scoparia); [16]
  Plant response rating, Kochia: 100
Kochia (Kochia scoparia); preemergence, Rate 250 g/ha
  Plant response rating (0 to 100), Kochia: 100
Kochia (Kochia scoparia); preemergence, Rate 500 g/ha
  Plant response rating (0 to 100), Kochia: 100
[6]; [16]
  Plant response rating, Pigweed: 0
[6]; preemergence
  Plant response rating (0 to 100), Pigweed: 40
[6]; [19]
  Plant response rating, Pigweed: 0
[7]; [22]
  Plant response rating, Lambsquarters: 100
[7]; [16]
  Plant response rating, Lambsquarters: 100
[7]; preemergence
  Plant response rating (0 to 100), Lambsquarters: 100
[7]; [19]
  Plant response rating, Lambsquarters: 100
[8]; [22]
  Plant response rating, Foxtail, Giant: 0
[8]; [16]
  Plant response rating, Foxtail, Giant: 100
[8]; preemergence, Rate 250 g/ha
  Plant response rating (0 to 100), Foxtail, Giant: 40
[8]; preemergence, Rate 500 g/ha
  Plant response rating (0 to 100), Foxtail, Giant: 50
Nightshade; [22]
  Plant response rating, Nightshade: 90
Nightshade; [16]
  Plant response rating, Nightshade: 100
Nightshade; [20]
  Plant response rating, Nightshade: 100
Soybean (Glycine max); [16]
  Plant response rating, Soybean: 30
Soybean (Glycine max); preemergence
  Plant response rating (0 to 100), Soybean: 100
Soybean (Glycine max); [19]
  Plant response rating, Soybean: 50
Corn (Zea mays); [22]
  Plant response rating, Corn: 0
Corn (Zea mays); [16]
  Plant response rating, Corn: 30
Corn (Zea mays); preemergence, Rate 250 g/ha
  Plant response rating (0 to 100), Corn: 0
Corn (Zea mays); preemergence, Rate 500 g/ha
  Plant response rating (0 to 100), Corn: 60
[9]; [22]
  Plant response rating, Cupgrass, Woolly: 90
[9]; [16]
  Plant response rating, Cupgrass, Woolly: 100
[9]; preemergence, Rate 250 g/ha
  Plant response rating (0 to 100), Cupgrass, Woolly: 100
[9]; preemergence, Rate 500 g/ha
  Plant response rating (0 to 100), Cupgrass, Woolly: 100
[10]; [22]
  Plant response rating, Johnsongrass: 20
[10]; [16]
  Plant response rating, Johnsongrass: 60
[10]; preemergence, Rate 250 g/ha
  Plant response rating (0 to 100), Johnsongrass: 60
[10]; preemergence, Rate 500 g/ha
  Plant response rating (0 to 100), Johnsongrass: 70
[11]; [22]
  Plant response rating, Cocklebur: 0
[11]; [16]
  Plant response rating, Cocklebur: 50
[11]; preemergence, Rate 250 g/ha
  Plant response rating (0 to 100), Cocklebur: 0
[11]; preemergence, Rate 500 g/ha
  Plant response rating (0 to 100), Cocklebur: 100
Sunflower [12]
  Plant response rating, Sunflower: 30
[13]; [22]
  Plant response rating, Surinam grass: 20
[13]; [16]
  Plant response rating, Surinam grass: 70
[13]; preemergence, Rate 250 g/ha
  Plant response rating (0 to 100), Surinam grass: 100
[13]; preemergence, Rate 500 g/ha
  Plant response rating (0 to 100), Surinam grass: 100
[14]; [16]
  Plant response rating, Ragweed, Common: 100
[14]; preemergence
  Plant response rating (0 to 100), Ragweed, Common: 100
[14]; [19]
  Plant response rating, Ragweed, Common: 100
[15]; [22]
  Plant response rating, Bermudagrass: 100
[15]; [16]
  Plant response rating, Bermudagrass: 100
[15]; preemergence, Rate 250 g/ha
  Plant response rating (0 to 100 where 0 is no effect and 100 is complete control), Bermudagrass: 100
[15]; preemergence, Rate 500 g/ha
  Plant response rating (0 to 100 where 0 is no effect and 100 is complete control), Bermudagrass: 100
